Measured values published in doi:10.1101/2024.08.13.607785v1 (biorxiv, 2024).
Where two headings read alike, the source gives them in different places. Each block holds one compound with its values, some of them ahead of it.

Assays:
Assay in all cases: biochemical
Parameters in all cases: species or system human cell line lysate
[1] = target: 3-phosphoinositide-dependent protein kinase 1 ; PDPK1 ; O15530 (Homo sapiens, UniProt O15530)
[2] = target: Serine/threonine-protein kinase RIO2 ; RIOK2 ; Q9BVS4 (Homo sapiens, UniProt Q9BVS4)
Serine/threonine-protein kinase RIO2 ; RIOK2 ; Q9BVS4, sequence (Q9BVS4 whole entry, one chain of several): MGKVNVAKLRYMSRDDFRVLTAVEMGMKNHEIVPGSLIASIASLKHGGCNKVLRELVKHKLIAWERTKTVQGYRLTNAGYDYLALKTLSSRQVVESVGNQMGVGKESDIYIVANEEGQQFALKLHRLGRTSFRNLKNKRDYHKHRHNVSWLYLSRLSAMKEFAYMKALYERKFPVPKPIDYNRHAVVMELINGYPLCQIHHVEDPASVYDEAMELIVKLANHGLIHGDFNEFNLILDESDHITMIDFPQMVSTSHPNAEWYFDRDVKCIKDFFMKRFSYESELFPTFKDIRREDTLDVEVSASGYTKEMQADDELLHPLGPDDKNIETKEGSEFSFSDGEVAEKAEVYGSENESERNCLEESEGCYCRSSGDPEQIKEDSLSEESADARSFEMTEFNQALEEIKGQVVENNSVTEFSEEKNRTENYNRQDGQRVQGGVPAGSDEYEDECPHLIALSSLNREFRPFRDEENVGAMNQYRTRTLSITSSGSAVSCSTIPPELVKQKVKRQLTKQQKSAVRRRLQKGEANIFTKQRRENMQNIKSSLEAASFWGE

[3] = target: Serine/threonine-protein kinase PLK1 ; PLK1 ; P53350 (Homo sapiens, UniProt P53350)
Serine/threonine-protein kinase PLK1 ; PLK1 ; P53350, sequence (P53350 whole entry, canonical isoform, one chain of several): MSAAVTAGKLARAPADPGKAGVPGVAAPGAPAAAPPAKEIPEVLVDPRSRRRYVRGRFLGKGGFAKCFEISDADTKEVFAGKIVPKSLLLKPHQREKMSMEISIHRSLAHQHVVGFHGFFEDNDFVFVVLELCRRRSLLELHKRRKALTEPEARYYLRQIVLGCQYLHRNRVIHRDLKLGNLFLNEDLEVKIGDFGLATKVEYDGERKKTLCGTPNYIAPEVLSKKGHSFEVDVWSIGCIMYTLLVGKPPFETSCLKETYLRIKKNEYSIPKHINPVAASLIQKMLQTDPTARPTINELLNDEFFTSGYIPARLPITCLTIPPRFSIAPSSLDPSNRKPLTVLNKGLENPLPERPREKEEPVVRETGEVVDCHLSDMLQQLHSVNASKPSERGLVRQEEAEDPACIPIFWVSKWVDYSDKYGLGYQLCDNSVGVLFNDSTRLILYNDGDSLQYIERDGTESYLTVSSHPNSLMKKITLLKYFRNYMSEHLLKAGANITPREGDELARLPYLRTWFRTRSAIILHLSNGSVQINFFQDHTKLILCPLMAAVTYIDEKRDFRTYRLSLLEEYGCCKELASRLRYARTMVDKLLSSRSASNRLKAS

[4] = target: Isoform 2 of Ribosomal protein S6 kinase alpha-1 ; RPS6KA1 ; Q15418-2 (Homo sapiens, UniProt Q15418)
[5] = target: Mitotic checkpoint serine/threonine-protein kinase BUB1 ; BUB1 ; O43683 (Homo sapiens, UniProt O43683)
[6] = target: Ephrin type-A receptor 2 ; EPHA2 ; P29317 (Homo sapiens, UniProt P29317)
Ephrin type-A receptor 2 ; EPHA2 ; P29317, sequence (P29317 whole entry): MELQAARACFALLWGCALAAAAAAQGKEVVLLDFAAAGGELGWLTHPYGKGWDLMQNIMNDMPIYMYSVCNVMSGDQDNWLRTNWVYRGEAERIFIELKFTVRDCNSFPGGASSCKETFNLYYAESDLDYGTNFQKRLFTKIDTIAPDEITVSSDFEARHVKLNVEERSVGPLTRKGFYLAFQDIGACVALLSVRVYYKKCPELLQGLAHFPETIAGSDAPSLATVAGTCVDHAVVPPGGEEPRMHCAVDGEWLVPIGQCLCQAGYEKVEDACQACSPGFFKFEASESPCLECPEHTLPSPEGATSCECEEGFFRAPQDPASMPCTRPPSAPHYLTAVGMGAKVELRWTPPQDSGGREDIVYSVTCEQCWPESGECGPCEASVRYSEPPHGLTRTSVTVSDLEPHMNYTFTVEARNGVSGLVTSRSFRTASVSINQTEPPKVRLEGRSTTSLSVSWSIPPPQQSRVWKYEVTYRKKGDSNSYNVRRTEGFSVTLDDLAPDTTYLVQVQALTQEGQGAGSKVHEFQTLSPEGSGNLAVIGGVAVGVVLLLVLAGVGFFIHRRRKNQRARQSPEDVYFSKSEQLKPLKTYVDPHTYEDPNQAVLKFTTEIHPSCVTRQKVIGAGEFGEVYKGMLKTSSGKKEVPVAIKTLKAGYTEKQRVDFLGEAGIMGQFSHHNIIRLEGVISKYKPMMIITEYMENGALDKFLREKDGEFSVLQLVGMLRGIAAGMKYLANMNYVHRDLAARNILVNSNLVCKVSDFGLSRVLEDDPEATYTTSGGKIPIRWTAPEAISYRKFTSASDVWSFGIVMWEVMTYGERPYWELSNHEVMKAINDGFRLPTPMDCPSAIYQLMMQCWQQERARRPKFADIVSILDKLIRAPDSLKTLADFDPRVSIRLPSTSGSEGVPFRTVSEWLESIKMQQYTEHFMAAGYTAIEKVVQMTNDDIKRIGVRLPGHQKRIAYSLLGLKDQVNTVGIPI

[7] = target: Phosphatidylinositol 5-phosphate 4-kinase type-2 gamma ; PIP4K2C ; Q8TBX8 (Homo sapiens, UniProt Q8TBX8)
[8] = target: Phosphatidylinositol 4,5-bisphosphate 3-kinase catalytic subunit delta ; PIK3CD ; O00329 (Homo sapiens, UniProt O00329)
[9] = target: Non-receptor tyrosine-protein kinase TNK1 ; TNK1 ; Q13470 (Homo sapiens, UniProt Q13470)
[10] = target: Isoform 2 of Proto-oncogene tyrosine-protein kinase Src ; SRC ; P12931-2 (Homo sapiens, UniProt P12931)
[11] = target: Serine/threonine-protein kinase SIK3 ; SIK3 ; Q9Y2K2 (Homo sapiens, UniProt Q9Y2K2)
[12] = target: Serine/threonine-protein kinase mTOR ; MTOR ; P42345 (Homo sapiens, UniProt P42345)
[13] = target: Leucine-rich repeat serine/threonine-protein kinase 2 ; LRRK2 ; Q5S007 (Homo sapiens, UniProt Q5S007)
Leucine-rich repeat serine/threonine-protein kinase 2 ; LRRK2 ; Q5S007, sequence (Q5S007 whole entry, one chain of several): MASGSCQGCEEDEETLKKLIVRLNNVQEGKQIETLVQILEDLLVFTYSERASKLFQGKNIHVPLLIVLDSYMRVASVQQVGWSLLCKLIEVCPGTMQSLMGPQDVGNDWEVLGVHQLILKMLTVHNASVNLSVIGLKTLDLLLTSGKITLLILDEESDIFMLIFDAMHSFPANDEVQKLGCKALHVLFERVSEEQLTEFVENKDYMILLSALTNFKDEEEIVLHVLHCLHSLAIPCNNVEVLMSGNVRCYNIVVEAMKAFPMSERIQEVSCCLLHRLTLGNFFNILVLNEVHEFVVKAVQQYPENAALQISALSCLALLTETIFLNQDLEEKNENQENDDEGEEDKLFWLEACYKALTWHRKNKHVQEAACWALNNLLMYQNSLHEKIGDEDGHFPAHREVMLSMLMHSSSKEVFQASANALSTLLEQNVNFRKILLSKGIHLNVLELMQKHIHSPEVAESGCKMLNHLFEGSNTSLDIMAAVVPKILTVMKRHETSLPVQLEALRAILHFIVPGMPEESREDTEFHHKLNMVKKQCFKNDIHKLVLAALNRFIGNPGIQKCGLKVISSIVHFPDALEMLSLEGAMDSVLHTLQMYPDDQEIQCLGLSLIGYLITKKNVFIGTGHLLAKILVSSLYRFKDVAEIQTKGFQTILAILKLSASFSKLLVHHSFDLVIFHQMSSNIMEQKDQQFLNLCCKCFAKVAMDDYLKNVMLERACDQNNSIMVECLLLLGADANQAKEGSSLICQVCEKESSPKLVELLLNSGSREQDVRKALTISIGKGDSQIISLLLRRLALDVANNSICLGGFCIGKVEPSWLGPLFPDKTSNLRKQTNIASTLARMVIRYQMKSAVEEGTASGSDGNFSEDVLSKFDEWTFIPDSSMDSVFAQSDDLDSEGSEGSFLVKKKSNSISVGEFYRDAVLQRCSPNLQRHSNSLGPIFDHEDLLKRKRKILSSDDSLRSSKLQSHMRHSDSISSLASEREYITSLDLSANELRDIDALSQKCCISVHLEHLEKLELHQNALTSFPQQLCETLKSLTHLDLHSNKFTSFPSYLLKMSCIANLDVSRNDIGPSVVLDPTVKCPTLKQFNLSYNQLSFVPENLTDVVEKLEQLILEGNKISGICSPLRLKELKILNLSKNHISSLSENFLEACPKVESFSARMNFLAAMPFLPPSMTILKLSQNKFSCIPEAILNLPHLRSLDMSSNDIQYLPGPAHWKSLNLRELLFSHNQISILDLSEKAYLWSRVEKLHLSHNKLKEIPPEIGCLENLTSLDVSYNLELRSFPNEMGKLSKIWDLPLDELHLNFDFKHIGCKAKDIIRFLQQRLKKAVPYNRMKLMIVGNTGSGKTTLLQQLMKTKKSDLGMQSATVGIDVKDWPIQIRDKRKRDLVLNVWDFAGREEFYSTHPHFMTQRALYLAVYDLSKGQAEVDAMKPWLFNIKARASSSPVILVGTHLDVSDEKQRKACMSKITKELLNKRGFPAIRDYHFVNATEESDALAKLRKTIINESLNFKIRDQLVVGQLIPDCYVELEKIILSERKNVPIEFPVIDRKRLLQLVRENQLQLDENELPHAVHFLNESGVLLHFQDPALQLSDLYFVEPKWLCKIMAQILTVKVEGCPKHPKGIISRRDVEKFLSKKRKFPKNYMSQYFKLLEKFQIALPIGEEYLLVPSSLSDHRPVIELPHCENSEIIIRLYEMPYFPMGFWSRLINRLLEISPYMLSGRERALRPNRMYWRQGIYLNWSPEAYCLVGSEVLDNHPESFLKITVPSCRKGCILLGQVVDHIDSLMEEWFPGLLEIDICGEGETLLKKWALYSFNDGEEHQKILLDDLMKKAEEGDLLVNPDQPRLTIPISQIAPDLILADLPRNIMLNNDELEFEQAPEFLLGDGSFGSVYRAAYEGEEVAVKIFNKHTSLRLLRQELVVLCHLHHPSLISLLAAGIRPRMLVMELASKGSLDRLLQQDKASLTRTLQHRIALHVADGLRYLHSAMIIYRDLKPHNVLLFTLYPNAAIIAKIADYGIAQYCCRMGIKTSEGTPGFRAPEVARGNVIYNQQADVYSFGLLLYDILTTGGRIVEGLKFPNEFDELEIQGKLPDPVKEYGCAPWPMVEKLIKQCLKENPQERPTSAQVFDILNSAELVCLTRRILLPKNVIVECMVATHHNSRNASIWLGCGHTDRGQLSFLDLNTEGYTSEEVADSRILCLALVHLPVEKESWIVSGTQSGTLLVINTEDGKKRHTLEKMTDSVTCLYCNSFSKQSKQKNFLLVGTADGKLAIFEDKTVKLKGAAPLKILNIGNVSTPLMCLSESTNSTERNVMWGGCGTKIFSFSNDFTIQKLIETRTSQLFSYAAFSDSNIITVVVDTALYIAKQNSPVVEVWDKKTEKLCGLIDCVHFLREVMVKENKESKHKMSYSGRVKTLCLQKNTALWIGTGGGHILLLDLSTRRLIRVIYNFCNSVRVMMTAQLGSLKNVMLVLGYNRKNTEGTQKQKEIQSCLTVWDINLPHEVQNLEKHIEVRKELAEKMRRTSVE

[14] = target: AP2-associated protein kinase 1 ; AAK1 ; Q2M2I8 (Homo sapiens, UniProt Q2M2I8)
[15] = target: Isoform 4 of LIM domain kinase 1 ; LIMK1 ; P53667-4 (Homo sapiens, UniProt P53667)
[16] = target: 1-phosphatidylinositol 3-phosphate 5-kinase ; PIKFYVE ; Q9Y2I7 (Homo sapiens, UniProt Q9Y2I7)
[17] = target: Phosphatidylinositol 4-phosphate 3-kinase C2 domain-containing subunit ; PIK3C2B ; O00750 (Homo sapiens, UniProt O00750)
[18] = target: Mitogen-activated protein kinase 11 ; MAPK11 ; Q15759 (Homo sapiens, UniProt Q15759)
Mitogen-activated protein kinase 11 ; MAPK11 ; Q15759, sequence (Q15759 whole entry): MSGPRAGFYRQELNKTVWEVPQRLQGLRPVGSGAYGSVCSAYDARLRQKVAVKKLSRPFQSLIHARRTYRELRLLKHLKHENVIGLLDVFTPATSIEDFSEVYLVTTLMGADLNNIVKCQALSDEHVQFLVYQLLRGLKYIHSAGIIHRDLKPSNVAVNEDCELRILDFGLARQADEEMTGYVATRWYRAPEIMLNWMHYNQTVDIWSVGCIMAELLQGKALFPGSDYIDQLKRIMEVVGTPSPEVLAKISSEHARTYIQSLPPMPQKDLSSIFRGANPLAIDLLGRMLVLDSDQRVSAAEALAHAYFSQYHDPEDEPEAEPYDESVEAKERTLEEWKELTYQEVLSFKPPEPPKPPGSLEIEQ

[19] = target: Interleukin-1 receptor-associated kinase 4 ; IRAK4 ; Q9NWZ3 (Homo sapiens, UniProt Q9NWZ3)
[20] = target: DNA-dependent protein kinase catalytic subunit ; PRKDC ; P78527 (Homo sapiens, UniProt P78527)
[21] = target: Ephrin type-A receptor 5 ; EPHA5 ; P54756 (Homo sapiens, UniProt P54756)
[22] = target: Ephrin type-A receptor 4 ; EPHA4 ; P54764 (Homo sapiens, UniProt P54764)
[23] = target: Dual specificity protein kinase CLK2 ; CLK2 ; P49760 (Homo sapiens, UniProt P49760)
[24] = read-out: BAY-1143572 (10 µM) / %Intensity relative to DMSO
[25] = read-out: BAY-1251152 (10 µM) / %Intensity relative to DMSO

- remaining activity at 10 µM [1, 24]: 114%
- remaining activity at 10 µM [2, 24]: 123%
- remaining activity at 10 µM [3, 24]: 104%
- remaining activity at 10 µM [4, 24]: 116%
- remaining activity at 10 µM [5, 24]: 109%
- remaining activity at 10 µM [6, 24]: 84.9%
- remaining activity at 10 µM [7, 24]: 110%
- remaining activity at 10 µM [8, 24]: 116%
- remaining activity at 10 µM [9, 24]: 113%
- remaining activity at 10 µM [10, 24]: 102%
- remaining activity at 10 µM [11, 24]: 109%
- remaining activity at 10 µM [12, 24]: 98.9%
- remaining activity at 10 µM [13, 24]: 109%
- remaining activity at 10 µM [14, 24]: 80.2%
- remaining activity at 10 µM [15, 24]: 79%
- remaining activity at 10 µM [16, 24]: 94.3%
- remaining activity at 10 µM [17, 24]: 79.7%
- remaining activity at 10 µM [18, 24]: 116%
- remaining activity at 10 µM [19, 24]: 121%
- remaining activity at 10 µM [20, 24]: 106%
- remaining activity at 10 µM [21, 24]: 99.7%
- remaining activity at 10 µM [22, 24]: 91.7%
- remaining activity at 10 µM [23, 24]: 139%
Structure (SMILES): COc1cc(F)ccc1-c1ncnc(Nc2cccc(C[S@](C)(=N)=O)c2)n1 [BAY-1143572]

- remaining activity at 10 µM [1, 25]: 104%
- remaining activity at 10 µM [2, 25]: 111%
- remaining activity at 10 µM [3, 25]: 96.8%
- remaining activity at 10 µM [4, 25]: 108%
- remaining activity at 10 µM [5, 25]: 106%
- remaining activity at 10 µM [6, 25]: 103%
- remaining activity at 10 µM [7, 25]: 107%
- remaining activity at 10 µM [8, 25]: 113%
- remaining activity at 10 µM [9, 25]: 109%
- remaining activity at 10 µM [10, 25]: 112%
- remaining activity at 10 µM [11, 25]: 106%
- remaining activity at 10 µM [12, 25]: 103%
- remaining activity at 10 µM [13, 25]: 107%
- remaining activity at 10 µM [14, 25]: 87.9%
- remaining activity at 10 µM [15, 25]: 106%
- remaining activity at 10 µM [16, 25]: 102%
- remaining activity at 10 µM [17, 25]: 84.6%
- remaining activity at 10 µM [18, 25]: 107%
- remaining activity at 10 µM [19, 25]: 112%
- remaining activity at 10 µM [20, 25]: 107%
- remaining activity at 10 µM [21, 25]: 109%
- remaining activity at 10 µM [22, 25]: 105%
- remaining activity at 10 µM [23, 25]: 112%
Structure (SMILES): COc1cc(F)ccc1-c1cc(Nc2cc(CS(C)(=N)=O)ccn2)ncc1F (stereo not shown) [BAY-1251152]
